The text below walks through data of patent US20160319324A1, “MODULATORS OF GLYCEROPHOSPHODIESTER PHOSPHODIESTERASE PROTEINS” (THE JOHNS HOPKINS UNIVERSITY, priority 2013, published 2016).

For one experiment, the target named is T1, GDE3 (Homo sapiens, UniProt Q9HCC8).
T1 construct: expressed in transfected cells; host or cells: HEK293T
T1 sequence (Q9HCC8 1-539): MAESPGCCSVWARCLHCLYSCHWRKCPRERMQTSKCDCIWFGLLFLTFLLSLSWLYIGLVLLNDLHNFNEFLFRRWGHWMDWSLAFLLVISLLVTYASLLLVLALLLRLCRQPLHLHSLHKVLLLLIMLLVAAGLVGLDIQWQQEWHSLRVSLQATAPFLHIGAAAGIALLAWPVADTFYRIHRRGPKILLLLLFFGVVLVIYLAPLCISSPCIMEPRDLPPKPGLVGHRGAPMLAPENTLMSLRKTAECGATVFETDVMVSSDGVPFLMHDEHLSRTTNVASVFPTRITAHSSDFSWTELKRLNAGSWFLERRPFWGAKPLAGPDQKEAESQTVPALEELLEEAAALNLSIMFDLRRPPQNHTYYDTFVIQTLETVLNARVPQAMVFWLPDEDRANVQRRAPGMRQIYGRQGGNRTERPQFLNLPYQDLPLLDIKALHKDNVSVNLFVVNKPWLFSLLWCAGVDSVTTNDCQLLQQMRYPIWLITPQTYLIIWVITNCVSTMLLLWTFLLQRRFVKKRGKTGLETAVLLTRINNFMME
Description: validation and site of action of candidate drugs from fresh powder by western blot analysis and surface biotinylation assay. The format is cell-based. The note with it: for expression and localization of CNTFR and GDE3 / release of CNTFR into the medium: 10 μM in 0.1% DMSO, 24 hours treatment; for expression and localization of CNTFR and GDE3: western blot banding pattern and surface biotinylation; for release of CNTFR into the medium: HEK293T cells transfected with Luc-CNTFR and GDE3. The procedure: FIG. 10. Validation and identification of the site of action of candidate drugs. Drugs hit by a high-throughput screening were prepared from the fresh powders and their activity was tested by established western blot analysis. […] Concentration of drugs=10 μM.
HEK293T cells were cultured in DMEM with 10% FBS on polyethyleneimine (PEI)-coated 12 well plates and transfected using Fugene6 agent (Roche). 24 hours after transfection, medium was changed to serum free DMEM and cells were incubated for an additional 24 hours. Medium and cell lysates were collected separately, and secretion and expression of proteins were analyzed by western blot and quantified using ImageJ (NIH). Antibodies used in Western analyses were rabbit-anti Jag1 (1:1000, Santa Cruz); rabbit anti-CRD (1:250, gift from Paul Englund) and mouse anti-myc (1.5 μg/ml for IP, DSHB) and as described.
Surface biotinylation assay was performed as previously described (29). Briefly, thirty hours after transfection of HEK293T cells with RECK/GDE and CreER constructs, cells were cooled on ice, washed twice with ice cold PBS++(1×PBS, 1 mM CaCl2, 0.5 mM MgCl2) and then incubated with PBS++ containing 1 mg/ml Sulfo-NHS-SSBiotin (Pierce) for 30 min at 4° C. Unreacted biotin was quenched by PBS++ containing 100 mM Glycine. Cultures were harvested in RIPA buffer, sonicated, and centrifuged at […] for 20 min at 4° C. The supernatant was rotated with Streptavidin beads (Pierce) for 2 hr at 4° C. Precipitates were washed with RIPA buffer three times and eluted with SDS gel loading buffer.
Currently, specific pharmacological modulators for GPI-AP cleavage have not been identified due to poor characterization of GPI-AP cleaving enzymes and the absence of an in vitro assay system. The robust GPI-AP cleaving activity of 6-TM GDEs has allowed the establishment of a luciferase-based, high throughput drug screening assay (signal to noise ratio=44.6; signal to background ratio=7.0; Z′ score=0.6: an excellent assay category). Measuring the GDE3-dependent release of GPI-anchored luciferase into the medium, the present inventors screened 3,360 compounds of the Johns Hopkins Drug library (JHDL), which contains FDA approved and phase II clinical trial drugs. The present inventors have selected common hits, which reduce or increase the release of luciferase activity into the medium more than 3 standard deviations of DMSO controls from duplicated experiments and identified 163 inhibitors (4.9%) and 138 activators (4.1%). Since the assay targets the whole GPI synthesis pathway as well as GPI cleaving activity, it is crucial to identify the site of action. Candidate drugs could modulate different steps of synthesis and cleavage of GPI-APs and will be categorized as follow: drugs activate or inhibit (i) the GPI biosynthesis machinery, (ii) glycosylation, (iii) surface expression of GPI-AP or GDE3, (iv) GPI cleaving activity of GDE, or (v) GPI cleaving-independent secretion of GPI-AP. Among 163 inhibitors, 23 drugs have been prepared from fresh powder stocks and their sites of action were tested by established western blot analyses and results are as follows: 10 drugs (no effect), 9 drugs (reducing surface expression and/or glycosylation of GPI-APs), and 4 drugs (inhibiting GPI-cleaving activity).
JHDL was used to screen drugs that affect the release of Luc-CNTFR into the medium. Drugs that increase or decrease the release index more than 3 SD of 16 DMSO controls of each plate were selected. Common hits of duplicated independent experiments were further analyzed. Among 3,360 drugs screened, we have identified 163 inhibitors and 138 activators. Among 163 inhibitors, 23 compounds were prepared from a fresh powder and their site of action was analyzed (10 μM in 0.1% DMSO, 24 hours treatment). To test whether drugs affect glycosylation and/or surface expression of CNTFR or GDE3, banding pattern of Western blot analysis and surface biotinylation assay were performed (FIG. 10). […]
(A western blot detects proteins with antibodies after separation by electrophoresis.)

The target in experiment [1] is Luc-CNTFR (firefly) [luciferase: P08659]. Description: cell-based or functional assay.
Sequence of Luc-CNTFR (firefly) [luciferase: P08659] (P08659 whole entry): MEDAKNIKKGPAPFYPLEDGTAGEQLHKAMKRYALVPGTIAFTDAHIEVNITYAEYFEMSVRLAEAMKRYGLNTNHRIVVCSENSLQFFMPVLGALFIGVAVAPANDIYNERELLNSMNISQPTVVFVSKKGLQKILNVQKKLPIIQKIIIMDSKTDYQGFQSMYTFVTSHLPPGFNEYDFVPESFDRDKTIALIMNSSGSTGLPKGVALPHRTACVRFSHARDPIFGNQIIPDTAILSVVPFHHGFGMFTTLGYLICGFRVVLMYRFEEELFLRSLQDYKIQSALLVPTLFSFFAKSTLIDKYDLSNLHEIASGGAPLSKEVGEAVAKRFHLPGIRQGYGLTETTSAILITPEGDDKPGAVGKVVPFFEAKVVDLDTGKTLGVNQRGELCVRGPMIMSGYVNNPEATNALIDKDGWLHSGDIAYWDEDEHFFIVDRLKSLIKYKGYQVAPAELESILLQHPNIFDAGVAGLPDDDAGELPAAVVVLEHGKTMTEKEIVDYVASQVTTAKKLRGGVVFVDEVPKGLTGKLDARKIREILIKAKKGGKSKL
Where [2] appears, read: Concentration of drugs=10 μM, western blot.

For the compound `CN1[C@@H]2CC[C@H]1C[C@@H](OC(c1ccccc1)c1ccccc1)C2` [benzotropine], on GDE3 (setting [2]), the “glycosylation pattern of CNTFR” value is on record as “affect glycosylation pattern of CNTFR”.
GDE3 (enzyme) gave a release index (luciferase activity in the medium/cell lysate) in experiment [1] of 7 fold.
On to `COc1c(C)c2c(c(O)c1C/C=C(\C)CCC(=O)O)C(=O)OC2` [mycophenolic acid], for which, on GDE3 (setting [2]), the “glycosylation pattern of CNTFR” value was “affect glycosylation pattern of CNTFR”.
Take `N[C@@H](Cc1cc(I)c(Oc2cc(I)c(O)c(I)c2)c(I)c1)C(=O)O` [thyroxine]: at GDE3, the “expression and localization of CNTFR and GDE3” value (“expression and localization” for short) was “without affecting expression and localization of CNTFR and GDE3”. Also, the “release of CNTFR into the medium” value on GDE3 (western blot) is listed as “inhibitor of the release of CNTFR”.
As for vitamin B12, the “expression and localization” value on GDE3 was “without affecting expression and localization of CNTFR and GDE3”. Further, the “release of CNTFR into the medium” value on GDE3 (western blot) was “inhibitor of the release of CNTFR”.
With `CCCCCCCCC(=O)NCc1ccc(O)c(OC)c1` [nonivamide], at GDE3, the “expression and localization” value was “without affecting expression and localization of CNTFR and GDE3”. Besides, on GDE3 (western blot), the “release of CNTFR into the medium” value is “inhibitor of the release of CNTFR”.
Turning to `O=C(O)CCC(=O)c1ccc(-c2ccccc2)cc1` [fenbufen], at GDE3 (western blot), the “release of CNTFR into the medium” value is listed as “increase the release of CNTFR into the medium”.
The same measure, in the same setting: next, `COc1ccc(CN(CCN(C)C)c2ccccn2)cc1` [pyrilamine]: “increase the release of CNTFR into the medium”.
As for `CC[C@H]1OC(=O)[C@H](C)[C@@H](O[C@H]2C[C@@](C)(OC)[C@@H](O)[C@H](C)O2)[C@H](C)[C@@H](O[C@@H]2O[C@H](C)C[C@H](N(C)C)[C@H]2O)[C@](C)(O)C[C@@H](C)C(=O)[C@H](C)[C@@H](O)[C@]1(C)O` [erythromycin], the “expression and localization” value on GDE3 is “without affecting expression and localization of CNTFR and GDE3”. Further, the “lysate level of CNTFR” value at GDE3 (setting [2]) was “without affecting the lysate level”. The “release of CNTFR into the medium” value was “inhibitor of the release of CNTFR” on GDE3 (western blot) and “inhibits the release of CNTFR” on GDE3 (western blot, listed as Erythromycin).
